Reference: US20100016232A1, “Treatment Of Inflammatory Diseases With Mammal Beta Defensins” (Novozymes A/S, priority 2008, published 2010)
Marks after values point to notes of the source that are not given here. Where no end group is shown, it is not given here.

Experiments:
[1] = test system: IL-23, human CD14+ monocyte-derived dendritic cells; test: IL-23 in supernatants of human CD14+ monocyte-derived dendritic cells, ELISA; format: cell-based
Method: The DCs were prepared according to a modified protocol originally described by Romani et al. Briefly, peripheral blood mononuclear cells (PBMCs) were purified from buffy coats of healthy donors by centrifugation over a Ficoll-pague (GE-healthcare) gradient. Monocytes were isolated from PBMC by positive selection of CD14+ cells by magnetic beads (Dynal, Invitrogen) according to the manufacturer's instructions. The CD14+ monocytes were cultured in 6-well plates in RPMI/2% Human AB Serum recombinant human recombinant granulocyte-macrophage colony-stimulating factor (GM-CSF, 20 ng/ml) and IL-4 (20 ng/ml) (PeproTech) for 6 days, replenishing the medium/cytokines after 2 and 5 days.
(§1) Cell culture supernatants were collected and stored at −80° C. Amounts of IL-23 was measured by standard sandwich ELISA using commercially available antibodies and standards according to the manufacturer's protocols (eBioscience).

IL-23, human PBMC = test: IL-23 in supernatants of human PBMC, ELISA; format: cell-based
Method: Peripheral blood was drawn from healthy volunteers (with approval from the relevant ethical committee in Denmark). Heparinized blood was diluted 1/1 v/v with RPMI and were subjected to Ficoll density centrifugation within 2 h of drawing. Plasma was collected from the top from individual donors and was kept on ice until it was used at 2% in the culture medium (autologous culture medium). Isolated PBMC were resuspended in autologous culture medium and seeded in 96-well culture plates with 255.000 cells per well in a total of 200 μl. […] The concentrations used for stimulation were optimized on 3 different donors in initial experiments, for LPS two different concentrations were used to be sure to be on a cytokine level that is possible to modulate. In some experiments PBMC were treated with Dexamethason and Indomethacin alone and together with LPS or LTA as a control on downregulation of inflammatory cytokines. The supernatants were collected after incubation at 37° C. for 24 hours, and stored at −80° C. until cytokine measurement. Viability was measured by Alamar Blue (Biosource, DALL 1100) in all experiments and in some cases also by MTS (Promega) according to manufacturer's instruction and was in some experiments also judged by counting of the cells by a Nucleocounter. […]
as §1

[2] = test system: collagen-induced arthritis (CIA) in the mouse; test: Collagen-induced rheumatoid arthritis model, clinical arthritis score; format: in vivo; parameters: key: each paw scored 0-4 by ascending severity; total summed over paws
Method: All animals were subjected on Day 0 of the study (study commencement) to an intradermal injection into the tail of 0.1 ml Type II Collagen/CFA emulsion (200 μg collagen per mouse) under light Isoflurane anesthesia, using a plastic syringe. The location of injection was at an approximate caudal distance of about 1 cm from the base of the tail. A collagen challenge (200 μg/mouse) was presented to the animals by IP injection of collagen and PBS on Day 21.
Treatments were commenced on day 14 of the study and continued once daily throughout. All surviving mice were terminated on study day 42.
Mice were examined for signs of arthritogenic responses in peripheral joints on study day 0, 14, 21 and thereafter five times weekly until termination of the study. Arthritis reactions were reported for each paw according to a 0-4 scale in ascending order of severity as shown below:
In accordance with Home Office regulations mice with a total clinical score of equal to or greater than 12 were culled due to arthritis severity. The clinical score of these mice at termination was carried forward in the analysis for the remainder of the study in order that the data was not artificially skewed by the removal of high scoring mice.

hBD2: human beta defensin 2, SEQ ID NO:2; produced recombinantly in E. coli (Example 1); hBD2 of Tables 16-18 was prepared by chemical synthesis (GIGDPVTCLKSGAICHPVFCPRRYKQIGTCGLPGTKCCKKP; ends and bridges not checked; cysteine pairing not given here; listed as Homo sapiens)
IL-23 ([1]; LPS (100 ng/ml) and IFN-γ (20 ng/ml), hBD2 1 μg/ml): 3833 pg/mL
IL-23 ([1]; LPS (100 ng/ml) and IFN-γ (20 ng/ml), hBD2 10 μg/ml): 3308 pg/mL
IL-23 ([1]; LPS (100 ng/ml) and IFN-γ (20 ng/ml), hBD2 30 μg/ml): 3042 pg/mL
IL-23 ([1]; LPS (100 ng/ml) and IFN-γ (20 ng/ml), hBD2 100 μg/ml): 2145 pg/mL
IL-23 ([1]; Unstimulated, hBD2 10 μg/ml): 451 pg/mL
IL-23 (IL-23, human PBMC; Control (medium), treatment 1 μg/ml): 218 pg/mL
IL-23 (IL-23, human PBMC; Control (medium), treatment 10 μg/ml): 211 pg/mL
IL-23 (IL-23, human PBMC; Control (medium), treatment 100 μg/ml): 207 pg/mL
IL-23 (IL-23, human PBMC; LPS 0.6 ng/ml, treatment 1 μg/ml): 338 pg/mL
IL-23 (IL-23, human PBMC; LPS 0.6 ng/ml, treatment 10 μg/ml): 462 pg/mL
IL-23 (IL-23, human PBMC; LPS 0.6 ng/ml, treatment 100 μg/ml): 484 pg/mL
IL-23 (IL-23, human PBMC; LPS 20 ng/ml, treatment 1 μg/ml): 263 pg/mL
IL-23 (IL-23, human PBMC; LPS 20 ng/ml, treatment 10 μg/ml): 295 pg/mL
IL-23 (IL-23, human PBMC; LPS 20 ng/ml, treatment 100 μg/ml): 488 pg/mL
IL-23 (IL-23, human PBMC; LTA 5 μg/ml, treatment 1 μg/ml): 383 pg/mL
IL-23 (IL-23, human PBMC; LTA 5 μg/ml, treatment 10 μg/ml): 438 pg/mL
IL-23 (IL-23, human PBMC; LTA 5 μg/ml, treatment 100 μg/ml): 810 pg/mL
Mean total arthritis score, peak ([2]; 0.1 mg/kg i.v. once daily from day 14 (Group E), study day 40): 9.0±0.77
Mean total arthritis score, peak ([2]; 1 mg/kg i.v. once daily from day 14 (Group D), study day 41): 5.2±1.11
Mean total arthritis score, peak ([2]; 10 mg/kg i.v. once daily from day 14 (Group C), study day 40): 5.0±1.04
Mean Arthritic Score ([2]; Group C, 10 mg/kg IV once daily, Study Day 0): 0.0
Mean Arthritic Score ([2]; Group C, 10 mg/kg IV once daily, Study Day 14): 1.7
Mean Arthritic Score ([2]; Group C, 10 mg/kg IV once daily, Study Day 21): 3.1
Mean Arthritic Score ([2]; Group C, 10 mg/kg IV once daily, Study Day 22): 4.3
Mean Arthritic Score ([2]; Group C, 10 mg/kg IV once daily, Study Day 23): 3.3
Mean Arthritic Score ([2]; Group C, 10 mg/kg IV once daily, Study Day 26): 4.1
Mean Arthritic Score ([2]; Group C, 10 mg/kg IV once daily, Study Day 27): 4.1
Mean Arthritic Score ([2]; Group C, 10 mg/kg IV once daily, Study Day 28): 4.1
Mean Arthritic Score ([2]; Group C, 10 mg/kg IV once daily, Study Day 29): 4.4
Mean Arthritic Score ([2]; Group C, 10 mg/kg IV once daily, Study Day 30): 4.9
Mean Arthritic Score ([2]; Group C, 10 mg/kg IV once daily, Study Day 33): 4.8
Mean Arthritic Score ([2]; Group C, 10 mg/kg IV once daily, Study Day 34): 4.9
Mean Arthritic Score ([2]; Group C, 10 mg/kg IV once daily, Study Day 35): 4.9
Mean Arthritic Score ([2]; Group C, 10 mg/kg IV once daily, Study Day 36): 4.8
Mean Arthritic Score ([2]; Group C, 10 mg/kg IV once daily, Study Day 37): 4.7
Mean Arthritic Score ([2]; Group C, 10 mg/kg IV once daily, Study Day 40): 5.0
Mean Arthritic Score ([2]; Group C, 10 mg/kg IV once daily, Study Day 41): 4.8*
Mean Arthritic Score ([2]; Group D, 1 mg/kg IV once daily, Study Day 0): 0.0
Mean Arthritic Score ([2]; Group D, 1 mg/kg IV once daily, Study Day 14): 0.6
Mean Arthritic Score ([2]; Group D, 1 mg/kg IV once daily, Study Day 21): 2.1
Mean Arthritic Score ([2]; Group D, 1 mg/kg IV once daily, Study Day 22): 2.3
Mean Arthritic Score ([2]; Group D, 1 mg/kg IV once daily, Study Day 23): 2.0
Mean Arthritic Score ([2]; Group D, 1 mg/kg IV once daily, Study Day 26): 2.0
Mean Arthritic Score ([2]; Group D, 1 mg/kg IV once daily, Study Day 27): 2.0
Mean Arthritic Score ([2]; Group D, 1 mg/kg IV once daily, Study Day 28): 2.3
Mean Arthritic Score ([2]; Group D, 1 mg/kg IV once daily, Study Day 29): 2.4
Mean Arthritic Score ([2]; Group D, 1 mg/kg IV once daily, Study Day 30): 2.7
Mean Arthritic Score ([2]; Group D, 1 mg/kg IV once daily, Study Day 33): 4.0
Mean Arthritic Score ([2]; Group D, 1 mg/kg IV once daily, Study Day 34): 4.1
Mean Arthritic Score ([2]; Group D, 1 mg/kg IV once daily, Study Day 35): 4.0
Mean Arthritic Score ([2]; Group D, 1 mg/kg IV once daily, Study Day 36): 4.1
Mean Arthritic Score ([2]; Group D, 1 mg/kg IV once daily, Study Day 37): 4.2
Mean Arthritic Score ([2]; Group D, 1 mg/kg IV once daily, Study Day 40): 4.7*
Mean Arthritic Score ([2]; Group D, 1 mg/kg IV once daily, Study Day 41): 5.2
Mean Arthritic Score ([2]; Group E, 0.1 mg/kg IV once daily, Study Day 0): 0.0
Mean Arthritic Score ([2]; Group E, 0.1 mg/kg IV once daily, Study Day 14): 1.2
Mean Arthritic Score ([2]; Group E, 0.1 mg/kg IV once daily, Study Day 21): 3.2
Mean Arthritic Score ([2]; Group E, 0.1 mg/kg IV once daily, Study Day 22): 3.6
Mean Arthritic Score ([2]; Group E, 0.1 mg/kg IV once daily, Study Day 23): 3.2
Mean Arthritic Score ([2]; Group E, 0.1 mg/kg IV once daily, Study Day 26): 3.7
Mean Arthritic Score ([2]; Group E, 0.1 mg/kg IV once daily, Study Day 27): 4.1
Mean Arthritic Score ([2]; Group E, 0.1 mg/kg IV once daily, Study Day 28): 4.4
Mean Arthritic Score ([2]; Group E, 0.1 mg/kg IV once daily, Study Day 29): 5.0
Mean Arthritic Score ([2]; Group E, 0.1 mg/kg IV once daily, Study Day 30): 5.9
Mean Arthritic Score ([2]; Group E, 0.1 mg/kg IV once daily, Study Day 33): 7.3
Mean Arthritic Score ([2]; Group E, 0.1 mg/kg IV once daily, Study Day 34): 7.8
Mean Arthritic Score ([2]; Group E, 0.1 mg/kg IV once daily, Study Day 35): 8.0
Mean Arthritic Score ([2]; Group E, 0.1 mg/kg IV once daily, Study Day 36): 8.2
Mean Arthritic Score ([2]; Group E, 0.1 mg/kg IV once daily, Study Day 37): 8.7
Mean Arthritic Score ([2]; Group E, 0.1 mg/kg IV once daily, Study Day 40): 9.0
Mean Arthritic Score ([2]; Group E, 0.1 mg/kg IV once daily, Study Day 41): 8.8
